Test results from patent US20150274719A1, “AMINO-SUBSTITUTED IMIDAZO[1,2-A]PYRIDINECARBOXAMIDES AND THEIR USE” (BAYER PHARMA AKTIENGESELLSCHAFT, priority 2012, published 2015).

Biological target: T1, recombinant guanylate cyclase reporter cell line (Rattus norvegicus, UniProt P19686+P20595)
T1 construct: expressed in transfected cells; host or cells: recombinant reporter cell line
T1 sequence (P19686 1-690): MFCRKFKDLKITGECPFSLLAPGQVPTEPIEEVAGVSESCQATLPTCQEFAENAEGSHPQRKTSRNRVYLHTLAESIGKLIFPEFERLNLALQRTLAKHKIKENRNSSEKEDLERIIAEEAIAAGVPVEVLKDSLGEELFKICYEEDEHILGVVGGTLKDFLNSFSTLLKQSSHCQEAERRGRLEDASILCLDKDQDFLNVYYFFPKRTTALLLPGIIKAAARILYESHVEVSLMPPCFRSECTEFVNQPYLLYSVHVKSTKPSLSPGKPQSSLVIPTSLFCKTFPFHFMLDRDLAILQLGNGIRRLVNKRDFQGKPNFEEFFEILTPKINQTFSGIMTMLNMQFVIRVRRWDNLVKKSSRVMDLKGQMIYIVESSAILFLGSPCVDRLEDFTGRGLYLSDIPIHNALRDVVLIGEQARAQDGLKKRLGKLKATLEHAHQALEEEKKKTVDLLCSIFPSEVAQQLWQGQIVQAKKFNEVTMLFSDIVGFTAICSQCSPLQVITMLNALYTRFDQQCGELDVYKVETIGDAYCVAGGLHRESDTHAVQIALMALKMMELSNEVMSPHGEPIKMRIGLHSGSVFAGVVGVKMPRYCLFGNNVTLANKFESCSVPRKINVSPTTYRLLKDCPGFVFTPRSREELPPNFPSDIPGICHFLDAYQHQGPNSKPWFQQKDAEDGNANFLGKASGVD
T1 sequence (P20595 1-619): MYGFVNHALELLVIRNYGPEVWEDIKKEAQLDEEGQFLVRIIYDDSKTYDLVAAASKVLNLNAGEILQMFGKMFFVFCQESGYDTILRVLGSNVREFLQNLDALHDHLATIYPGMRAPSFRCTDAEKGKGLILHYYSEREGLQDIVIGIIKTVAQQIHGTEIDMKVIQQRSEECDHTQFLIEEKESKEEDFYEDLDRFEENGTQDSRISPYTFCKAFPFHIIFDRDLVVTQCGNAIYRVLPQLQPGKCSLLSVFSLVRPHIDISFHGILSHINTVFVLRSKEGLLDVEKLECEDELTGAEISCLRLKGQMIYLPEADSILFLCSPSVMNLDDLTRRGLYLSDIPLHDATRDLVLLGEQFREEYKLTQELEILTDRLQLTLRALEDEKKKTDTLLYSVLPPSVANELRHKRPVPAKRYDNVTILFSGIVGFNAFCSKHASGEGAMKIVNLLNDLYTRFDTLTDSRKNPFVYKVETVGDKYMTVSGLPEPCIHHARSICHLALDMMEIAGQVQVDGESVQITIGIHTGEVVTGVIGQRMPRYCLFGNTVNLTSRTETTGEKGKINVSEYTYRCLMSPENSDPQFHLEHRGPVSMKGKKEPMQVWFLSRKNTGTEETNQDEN
Test: Action on recombinant guanylate cyclase reporter cell line
Format: cell-based
Settings: in some cases mean values from individual determinations
Procedure, shortened: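 Whole-cell reporter assay with recombinant guanylate cyclase; endpoint = minimal effective concentration.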

Question: How did the “MEC (minimal effective concentration)” value turn out when `Cc1cc(OCc2c(F)cccc2F)c2nc(C)c(C(=O)NCC(N)c3cccc(OC(F)(F)F)c3)n2c1` (racemic) [Example 377, rac-N-{2-amino-2-[3-(trifluoromethoxy)phenyl]ethyl}-8-[(2,6-difluorobenzyl)oxy]-2,6-dimethylimidazo[1,2-a]pyridine-3-carboxamide] was run?
Answer: 3.00 µM

Question: With `Cc1nc2c(OCc3c(F)cccc3F)cccn2c1C(=O)NC(C)[C@@H](C)N` (stereo partly drawn) [Example 121, N-[(3R)-3-Aminobutan-2-yl]-8-[(2,6-difluorobenzyl)oxy]-2-methylimidazo[1,2-a]pyridine-3-carboxamide] as the compound, how does the “MEC (minimal effective concentration)” value read?
Answer: 0.30 µM

Question: For `Cc1cc(OCc2c(F)ccc(C3CC3)c2F)c2nc(C)c(C(=O)NCC(C)(N)CF)n2c1` (stereo not drawn) [Example 362, N-(2-amino-3-fluoro-2-methylpropyl)-8-[(3-cyclopropyl-2,6-difluorobenzyl)oxy]-2,6-dimethylimidazo[1,2-a]pyridine-3-carboxamide], which “MEC (minimal effective concentration)” value is on record?
Answer: 1.00 µM

Question: How did the “MEC (minimal effective concentration)” value turn out when `CCCC(C)(N)CNC(=O)c1c(C2CC2)nc2c(OCc3c(F)cccc3F)cc(C)cn12` (stereo not drawn) [Example 322, ent-N-(2-amino-2-methylpentyl)-2-cyclopropyl-8-[(2,6-difluorobenzyl)oxy]-6-methylimidazo[1,2-a]pyridine-3-carboxamide] was run?
Answer: 0.30 µM

Question: Which “MEC (minimal effective concentration)” value does the source give for `Cc1cc(OCc2c(F)cccc2F)c2nc(C)c(C(=O)NC(C)C3CCN(C)CC3)n2c1` (racemic) [Example 77, rac-8-[(2,6-difluorobenzyl)oxy]-2,6-dimethyl-N-[1-(1-methylpiperidin-4-yl)ethyl]imidazo[1,2-a]-pyridine-3-carboxamide] here?
Answer: 1.00 µM

Question: How did the “MEC (minimal effective concentration)” value turn out when `Cc1nc2c(OCc3c(F)cccc3F)cccn2c1C(=O)NCC(C)(N)CCOCc1ccccc1` (single isomer, unassigned; enantiomer a) [Example 266, ent-N-[2-Amino-4-(benzyloxy)-2-methylbutyl]-8-[(2,6-difluorobenzyl)oxy]-2-methylimidazo[1,2-a]pyridine-3-carboxamide (Enantiomer A)] was run?
Answer: 0.03 µM

Question: With `Cc1nc2c(OCc3c(F)cccc3F)cccn2c1C(=O)NCC(N)CC(F)(F)F` (single isomer, unassigned) [Example 126, ent-N-(2-Amino-4,4,4-trifluorobutyl)-8-[(2,6-difluorobenzyl)oxy]-2-methylimidazo[1,2-a]pyridine-3-carboxamide] as the compound, how does the “MEC (minimal effective concentration)” value read?
Answer: 0.30 µM

Question: For `Cc1cc(OCCC(C(F)(F)F)C(F)(F)F)c2nc(C)c(C(=O)NCC(C)(N)CC(C)C)n2c1` (racemic) [Example 258, rac-N-(2-Amino-2,4-dimethylpentyl)-2,6-dimethyl-8-[4,4,4-trifluoro-3-(trifluoromethyl)butoxy]-imidazo[1,2-a]pyridine-3-carboxamide], which “MEC (minimal effective concentration)” value is on record?
Answer: 1.00 µM

Question: Which “MEC (minimal effective concentration)” value does the source give for `Cc1nc2c(OCc3c(F)cccc3F)cc(Cl)cn2c1C(=O)NC(C)C1CCN(C)CC1` (racemic) [Example 78, rac-6-chloro-8-[(2,6-difluorobenzyl)oxy]-2-methyl-N-[1-(1-methylpiperidin-4-yl)ethyl]-imidazo[1,2-a]pyridine-3-carboxamide] here?
Answer: 1.00 µM

Question: How did the “MEC (minimal effective concentration)” value turn out when `Cc1cc(OCc2c(F)cccc2F)c2nc(C)c(C(=O)NCC(N)C#N)n2c1` (racemic) [Example 400, rac-N-(2-amino-2-cyanoethyl)-8-[(2,6-difluorobenzyl)oxy]-2,6-dimethylimidazo[1,2-a]pyridine-3-carboxamide] was run?
Answer: 0.65 µM

Question: Which “MEC (minimal effective concentration)” value does the source give for `Cc1cc(OCc2c(F)cccc2F)c2nc(C)c(C(=O)NC3(C)CCC3(C)N)n2c1` (racemic) [Example 335, rac-N-[2-amino-1,2-dimethylcyclobutyl]-8-[(2,6-difluorobenzyl)oxy]-2,6-dimethylimidazo[1,2-a]pyridine-3-carboxamide] here?
Answer: 0.30 µM

Question: For `Cc1nc2c(OCc3c(F)cccc3F)cccn2c1C(=O)NC12CNCCC1C2` (single isomer, unassigned) [Example 185, ent-N-(3-Azabicyclo[4.1.0]hept-1-yl)-8-[(2,6-difluorobenzyl)oxy]-2-methylimidazo[1,2-a]pyridine-3-carboxamide], which “MEC (minimal effective concentration)” value is on record?
Answer: 1.00 µM

Question: `Cc1cc(OCCC(C)C)c2nc(C)c(C(=O)NCC(C)(N)CC(C)C)n2c1` (racemic) [Example 249, rac-N-(2-Amino-2,4-dimethylpentyl)-2,6-dimethyl-8-(3-methylbutoxyl)imidazo[1,2-a]pyridine-3-carboxamide] was tested. Which “MEC (minimal effective concentration)” value did it give?
Answer: 1.00 µM

Question: `Cc1nc2c(OCc3cccc(F)c3F)cccn2c1C(=O)NC(CN)c1ccc(F)c(F)c1` (stereo not drawn) [Example 99] was tested. Which “MEC (minimal effective concentration)” value did it give?
Answer: 1.00 µM

Question: For `CCC1CC(NC(=O)c2c(C)nc3c(OCc4c(F)cccc4F)cc(C)cn23)c2nc(C(F)(F)F)ccc2N1` (single isomer, unassigned; ent-8) [Example 325, ent-8-[(2,6-Difluorobenzyl)oxy]-N-[2-ethyl-6-(trifluoromethyl)-1,2,3,4-tetrahydro-1,5-naphthyridin-4-yl]-2,6-dimethylimidazo[1,2-a]pyridine-3-carboxamide], which “MEC (minimal effective concentration)” value is on record?
Answer: 0.30 µM

Question: With `Cc1cc(OCc2c(F)cccc2F)c2nc(C)c(C(=O)NCC(C)(N)C(F)(F)F)n2c1` (single isomer, unassigned) [Example 240, ent-N-(2-Amino-3,3,3-trifluoro-2-methylpropyl)-8-[(2,6-difluorobenzyl)oxy]-2,6-dimethylimidazo-[1,2-a]pyridine-3-carboxamide] as the compound, how does the “MEC (minimal effective concentration)” value read?
Answer: 0.30 µM

Question: For `CSCCC(N)CNC(=O)c1c(C)nc2c(OCc3c(F)cccc3F)cc(C)cn12` (racemic) [Example 412, rac-N-[2-amino-4-(methylsulfanyl)butyl]-8-[(2,6-difluorobenzyl)oxy]-2,6-dimethylimidazo[1,2-a]pyridine-3-carboxamide], which “MEC (minimal effective concentration)” value is on record?
Answer: 0.10 µM

Question: Which “MEC (minimal effective concentration)” value does the source give for `Cc1cc(OCc2c(F)cccc2F)c2nc(C)c(C(=O)NC3CCCCNC3)n2c1` (racemic) [Example 316, rac-N-(azepan-3-yl)-8-[(2,6-difluorobenzyl)oxy]-2,6-dimethylimidazo[1,2-a]pyridine-3-carboxamide] here?
Answer: 0.30 µM

Question: With `Cc1cc(OCc2c(F)cccc2F)c2nc(C)c(C(=O)NCC(N)c3ccc4ncccc4c3)n2c1` (racemic) [Example 372, rac-N-[2-amino-2-(quinolin-6-yl)ethyl]-8-[(2,6-difluorobenzyl)oxy]-2,6-dimethylimidazo[1,2-a]pyridine-3-carboxamide] as the compound, how does the “MEC (minimal effective concentration)” value read?
Answer: 3.00 µM

Question: How did the “MEC (minimal effective concentration)” value turn out when `Cc1cc(OCc2c(F)cccc2F)c2nc(C)c(C(=O)NC3CCNCC3(F)F)n2c1` (racemic) [Example 299, rac-8-[(2,6-difluorobenzyl)oxy]-N-(3,3-difluoropiperidin-4-yl)-2,6-dimethylimidazo[1,2-a]pyridine-3-carboxamide] was run?
Answer: 0.10 µM

Question: How did the “MEC (minimal effective concentration)” value turn out when `Cc1nc2c(OCc3c(F)cccc3F)cc(Cl)cn2c1C(=O)NCCN(CC(F)F)C1CC1` [Example 150, 6-chloro-N-{2-[cyclopropyl(2,2-difluoroethyl)-amino]ethyl}-8-[(2,6-difluorobenzyl)oxy]-2-methylimidazo[1,2-a]pyridine-3-carboxamide] was run?
Answer: 0.10 µM

Question: How did the “MEC (minimal effective concentration)” value turn out when `Cc1cc(OCc2c(F)cccc2F)c2nc(C)c(C(=O)NC(C#N)CN)n2c1` (racemic) [Example 416, rac-N-(2-amino-1-cyanoethyl)-8-[(2,6-difluorobenzyl)oxy]-2,6-dimethylimidazo[1,2-a]pyridine-3-carboxamide] was run?
Answer: 1.00 µM

Question: `Cc1cc(OCc2c(F)cccc2F)c2nc(C)c(C(=O)NCC(N)CCS(C)(=O)=O)n2c1` (racemic) [Example 413, rac-N-[2-amino-4-(methylsulfonyl)butyl]-8-[(2,6-difluorobenzyl)oxy]-2,6-dimethylimidazo[1,2-a]pyridine-3-carboxamide] was tested. Which “MEC (minimal effective concentration)” value did it give?
Answer: 5.5 µM

Question: How did the “MEC (minimal effective concentration)” value turn out when `Cc1nc2c(OCc3c(F)cccc3F)cccn2c1C(=O)NC1CNCc2ccccc21` (single isomer, unassigned; ent-8) [Example 109, ent-8-[(2,6-difluorobenzyl)oxy]-2-methyl-N-(1,2,3,4-tetrahydroisoquinolin-4-yl)imidazo[1,2-a]pyridine-3-carboxamide] was run?
Answer: 1.00 µM
